According to US20250041245A1, “ENDOXIFEN FOR TREATMENT OF CANCERS” (Atossa Therapeutics, Inc., priority 2021, published 2025):
Values joined by “and” are separate entries in the source; they are usually repeats but may differ in a detail not shown here. Equal values may be shown once. “Also recorded” adds a separate entry of the source.

What was measured:
Format in all cases: cell-based, human
[1] = test system: patient-derived tumor organoids (PDTOs), gastric cancer; experiment: Endoxifen screen in PDTOs: gastric cancer; set-up: key to Personalization Category: Personalization categories range from High, Good, Moderate, Low, to None; Personalization categories range from High, Good, Moderate, Low, to None; Personalization categories range from High, Good, Moderate, Low, to None; Personalization categories range from High, Good, Moderate, Low, to None; Personalization categories range from High, Good, Moderate, Low, to None; key to Sensitivity Category: Sensitivity categories range from High, Good, Moderate, Low, to None; Sensitivity categories range from High, Good, Moderate, Low, to None; Sensitivity categories range from High, Good, Moderate, Low, to None; Sensitivity categories range from High, Good, Moderate, Low, to None; Sensitivity categories range from High, Good, Moderate, Low, to None; AUC: unit not given beside the values; conditions: each line one patient sample
Experimental: (§1) This example describes screening endoxifen in patient-derived tumor organoids. Endoxifen was tested as a single agent on tumor organoids derived from patients diagnosed with various cancer types using a personalized cancer treatment screening assay (PARIS© Test, SEngine Precision Medicine). The screen utilized patient-derived tumor organoids (PDTOs) along with high-throughput drug screening and machine learning-guided data analysis to quantify the efficacy of endoxifen against samples derived from individual patients diagnosed with various cancer types. PDTOs are self-organizing, three-dimensional organoid structures that recapitulate structural, functional, and genomic aspects of in vivo organs. The PDTOs were grown in culture from patient tumor biopsy samples.
(§2) Fresh patient biopsy samples received following surgery were cleaned and purified. Immune cells (e.g., lymphocytes, blood cells), cancer-associated fibroblasts, and other non-tumor cells were removed to establish pure PDTOs for endoxifen testing. The tumor organoids were grown and expanded by supplying organ- and patient-specific growth factors and nutrients. The PDTOs were treated with increasing concentrations of endoxifen ranging from about 30 nM to about 10 μM, and the drug response was measured using a luminescence readout. A lower luminescence was indicative of a stronger drug response.
(§3) The results were analyzed using a “SEngine Precision Medicine” (SPM) scoring system to assess the sensitivity and personalization of each tumor organoid to endoxifen. The SPM score correlates with clinical outcomes, such that a higher SPM score for a specific PDTO-drug combination predicts a more favorable clinical outcome following treatment of the corresponding patient with the tested drug.
(§4) This example describes testing endoxifen efficacy against 17 distinct cancer types in patient-derived tumor organoids (PDTOs). Screening of PDTOs was performed as described in EXAMPLE 1. For each PDTO sample, the drug response was measured using a luminescent readout over a range of endoxifen concentrations. The drug response was evaluated based on the area under the fitted dose response curve (AUC) and the SPM scoring system. AUC values were normalized for each PDTO. Briefly, data points at each drug concentration were first normalized to a negative control, then a dose response drug curve was approximated using a four-parameter logistic model fitted to the normalized data points. The area under the curve was calculated from the normalized curve. Normalization allowed for comparison of AUC values between patient samples. The SPM scores were based on machine learning models that incorporate values for how well the drug kill patient cells (sensitivity metric), the relative drug responses of a patient to all other patients in a sample database (personalization metric), and knowledge of clinical outcomes for patients that had been evaluated with the personalized cancer screening assay (PARIS® Test, SEngine Precision Medicine).
(§5) The SPM scoring system evaluated whether a PDTO was unresponsive or responsive to endoxifen and the degree of drug response for PDTOs that were responsive to endoxifen. The SPM scoring system generated metrics an SPM score, predictive of clinical outcome, overall drug response (response category), drug sensitivity (sensitivity category), and drug personalization (personalization category). SPM scores ranged from 1-15, corresponding to the following drug response categories: no response (SPM 1-8), low response (SPM 9), moderate response (SPM 10-11), good response (SPM 12-13), and exceptional response (SPM 14-15). […] Moderate to good drug responses (SPM 10-13) may indicate that a drug has clinical relevance, possibly in combination with other drugs. The sensitivity category was determined from the sensitivity metric and is a measure of overall cell death of a patient's cells in response to endoxifen at six concentrations. […]

[2] = test system: patient-derived tumor organoids (PDTOs), colorectal cancer; experiment: Endoxifen screen in PDTOs: colorectal cancer; set-up: key to Personalization Category: Personalization categories range from High, Good, Moderate, Low, to None; Personalization categories range from High, Good, Moderate, Low, to None; Personalization categories range from High, Good, Moderate, Low, to None; Personalization categories range from High, Good, Moderate, Low, to None; Personalization categories range from High, Good, Moderate, Low, to None; key to Sensitivity Category: Sensitivity categories range from High, Good, Moderate, Low, to None; Sensitivity categories range from High, Good, Moderate, Low, to None; Sensitivity categories range from High, Good, Moderate, Low, to None; Sensitivity categories range from High, Good, Moderate, Low, to None; Sensitivity categories range from High, Good, Moderate, Low, to None; AUC: unit not given beside the values; conditions: each line one patient sample
Experimental: as §1, §2, §3, §4, §5

[3] = test system: patient-derived tumor organoids (PDTOs), endometrial carcinoma; experiment: Endoxifen screen in PDTOs: endometrial carcinoma; set-up: key to Personalization Category: Personalization categories range from High, Good, Moderate, Low, to None; Personalization categories range from High, Good, Moderate, Low, to None; Personalization categories range from High, Good, Moderate, Low, to None; Personalization categories range from High, Good, Moderate, Low, to None; Personalization categories range from High, Good, Moderate, Low, to None; key to Sensitivity Category: Sensitivity categories range from High, Good, Moderate, Low, to None; Sensitivity categories range from High, Good, Moderate, Low, to None; Sensitivity categories range from High, Good, Moderate, Low, to None; Sensitivity categories range from High, Good, Moderate, Low, to None; Sensitivity categories range from High, Good, Moderate, Low, to None; AUC: unit not given beside the values
Experimental: as §1, §2
(§6) The results were analyzed using a “SEngine Precision Medicine” (SPM) scoring system to assess the sensitivity and personalization of each tumor organoid to endoxifen. […]
as §4, with “Screening of PDTOs was performed as described in EXAMPLE 1.” left out, “AUC values were normalized for each PDTO. Briefly, data points at each drug concentration were first normalized to a negative control, then a dose response drug curve was approximated using a four-parameter logistic model fitted to the normalized data points.” left out, “Normalization allowed for comparison of AUC values between patient samples.” left out
The SPM scoring system evaluated whether a PDTO was unresponsive or responsive to endoxifen and the degree of drug response for PDTOs that were responsive to endoxifen. […] The sensitivity category was determined from the sensitivity metric and is a measure of overall cell death of a patient's cells in response to endoxifen at six concentrations. […]

[4] = test system: patient-derived tumor organoids (PDTOs), sarcoma; experiment: Endoxifen screen in PDTOs: sarcoma; set-up: key to Personalization Category: Personalization categories range from High, Good, Moderate, Low, to None; Personalization categories range from High, Good, Moderate, Low, to None; Personalization categories range from High, Good, Moderate, Low, to None; Personalization categories range from High, Good, Moderate, Low, to None; Personalization categories range from High, Good, Moderate, Low, to None; AUC: unit not given beside the values
Experimental: as §1
as §2, with “The tumor organoids were grown and expanded by supplying organ- and patient-specific growth factors and nutrients.” left out
as §6
This example describes testing endoxifen efficacy against 17 distinct cancer types in patient-derived tumor organoids (PDTOs). […] For each PDTO sample, the drug response was measured using a luminescent readout over a range of endoxifen concentrations. The drug response was evaluated based on the area under the fitted dose response curve (AUC) and the SPM scoring system. […] The area under the curve was calculated from the normalized curve. […]
The SPM scoring system evaluated whether a PDTO was unresponsive or responsive to endoxifen and the degree of drug response for PDTOs that were responsive to endoxifen. […]

[5] = normalized area under fitted dose response curve

CC/C(=C(\c1ccc(O)cc1)c1ccc(OCCNC)cc1)c1ccccc1 [Endoxifen, 4-hydroxy-N-desmethyltamoxifen]
Personalization Category [1]: None and Low and High
Response Category [1]: None (no response (SPM 1-8)); also recorded: Low (low response (SPM 9)); also recorded: Good (good response (SPM 12-13)); also recorded: Moderate (moderate response (SPM 10-11))
Sensitivity Category [1]: Low and Moderate
IC50 ([1]; four-parameter logistic fit): 6.55 µM and 6.73 µM and 2.45 µM and 4.14 µM and 2.89 µM and 4.86 µM
AUC [1, 5]: 0.9503 and 0.8641 and 0.7529 and 0.8116 and 0.6723 and 0.8547
SPM Score ([1]; score range 1-15): 5 and 9 and 12 and 11 and 13 and 10
Personalization Category [2]: None and Low and Good and Moderate
Response Category [2]: None (no response (SPM 1-8)); also recorded: Low (low response (SPM 9)); also recorded: Moderate (moderate response (SPM 10-11))
Sensitivity Category [2]: None and Low
IC50 ([2]; four-parameter logistic fit): 7.16 µM and 9.23 µM and 7.23 µM and 5.61 µM and 10 µM and 5.65 µM and 4.72 µM and 3.62 µM and 8.86 µM and 5.67 µM and 6.74 µM and 9.61 µM and 9.09 µM
AUC [2, 5]: 0.9517 and 0.9919 and 1.0338 and 0.9902 and 1.0377 and 0.9305 and 0.8841 and 0.8215 and 0.9346 and 0.8357 and 0.8866 and 0.9755 and 0.9804 and 0.9752 and 1.0467
SPM Score ([2]; score range 1-15): 1 (9×) and 3 and 5 and 9 (2×) and 11 and 10
Personalization Category ([3]; patient 39): None
Sensitivity Category ([3]; patient 39): None
AUC ([3]; patient 39, normalized area under fitted dose response curve): 1.0102
SPM Score ([3]; patient 39, score range 1-15): 1
Personalization Category ([4]; patient 21): None
AUC ([4]; patient 21, normalized area under fitted dose response curve): 0.9995
SPM Score ([4]; patient 21, score range 1-15): 1
